Type in all cases: cell-based, human
The subject of assay [1] is EUFA423F HA cells. Description: CellTiter-Glo cell viability, BRCA2-complemented cells. The conditions noted are these: yes/no. The source says: (§1) Cell lines: EUFA423F cells that are derived from a Fanconi Anemia patient with complementation group D1 and have biallelic mutations (7691 insAT and 9900 insA) in BRCA2 that result in two different truncated forms of BRCA2 (Howlett N G, et al., Science (New York, NY). 2002; 297(5581):606-9) and its counterpart complemented with expression vector for full-length BRCA2 (EUFA HA) were a generous gift from Dr. Simon Powell, Molecular Biology Program, Radiation Oncology, Sloan-Kettering Cancer Center, New York, NY).
(§2) Cell proliferation assay: Selective toxicity of the compounds towards human BRCA2 deficient cells was tested in EUFA423F and its complement EUFA423F HA using CellTiter-Glo® Luminescent Cell Viability Assay (Promega, Madison, WI). The cell lines were maintained in DMEM (Gibco/ThermoFisher Scientific, Waltham, MA) supplemented with 10% FBS and 10 mM HEPES (Gibco/ThermoFisher Scientific, Waltham, MA). EUFA423F HA cells were routinely supplemented with G418 in order to maintain the BRCA2 expression plasmid. Both cell lines were seeded in sterile tissue culture treated, white opaque 384-well plates (Perkin Elmer Inc., Waltham, MA) 3000 cells/well for EUFA423F HA and 2500 cells/well for EUFA423F) and allowed to adhere for 24 hours. Compounds dissolved in DMSO were added in the concentration range of 0-100 μM. Controls were treated with equivalent DMSO volumes. The cells were treated with compounds for 72 hours (to ensure that all cells experienced at least two S-phases). Post treatment, the cells were washed, treated with the CellTiter-Glo® reagent was added and the plate was analyzed as using a Gen5 (ver2.1) luminosity plate reader. The luminescence that reports on ATP generation by the surviving cells was normalized for the DMSO treated control as 100%. The normalized luminescence (average±standard deviation for at least three independent measurements obtained with different cell passages) was plotted in GraphPad Prism as a function of compound concentration. Clonogenic Survival: EUFA423F and EUFA423F HA cells were seeded in a 96 well plate. Compounds dissolved in DMSO were added to final concentrations of 0, 50, and 100 μM for the compound of Example 8 and the compound of Example 1, and 0, 5, and 10 μM for the compounds of Examples 2-7. The cells were treated with compounds for 72 hours. Post treatment, cell cultures were harvested by collecting all non-adherent cells in the well, trypsinization of all adherent cells, combining, pelleting and then resuspending in fresh media. Cultures treated with DMSO only were subsequently counted using a hemocytometer and plated at a density of 2000, 200 and 20 cells per well in 6-well culture plates, equal volumes of cultures were plated each inhibitor concentration. Each treatment and cell density conditions for both cell lines were plated in triplicate. After expanding the colonies for a period of 8 days, cultures were fixed with a solution of 70% ethanol and crystal violet for clonogenic survival analysis. Pictures of individual wells were taken using GelCount (Version 1.3.0.4) by Oxford Optronix (Abingdon UK). A colony had to contain at least 50 cells to be counted. The number of surviving colonies following treatment are presented as a percentage of number of colonies in the experiment where the cells were treated with DMSO only.
For orientation: In ATP-based viability assays light output follows the ATP content of the culture.

Assay [2] concerns EUFA423F HA cells. The assay is described as above. The conditions noted are these: high concentrations (Z56: 250 μM).
For a further assay, the system named is EUFA423F cells. Nature of the assay: CellTiter-Glo cell viability, BRCA2-mutated cells. The conditions noted are these: for toxicity towards EUFA423 cells: BRCA2-mutated cells, yes/no; for toxicity / selective toxicity towards BRCA2-mutated cells in cell viability assays: EUFA423F versus EUFA423F HA.
Excerpt: as §1, §2

“Also recorded” adds a separate entry of the source.

`O=C(Cn1cccc([N+](=O)[O-])c1=O)c1c[nH]c2ccccc12` [Example 1]: the “toxicity towards EUFA423 HA (BRCA2-complemented cells)” value in the assay with EUFA423F HA cells [1] is recorded as “yes”. In addition, the “effect on viability/growth of BRCA2-complemented HA cells” value in the assay on EUFA423F HA cells [2] (listed as Z99) was “affected the viability; also recorded: some toxicity towards BRCA2-complemented cells”. Besides, in the assay with EUFA423F cells, the “toxicity towards EUFA423 cells” value is recorded as “yes”. Also, the “toxicity / selective toxicity towards BRCA2-mutated cells in cell viability assays” value in the assay on EUFA423F cells (CellTiter-Glo, 72 hours, listed as Z99) was “selectively toxic; also recorded: shows toxicity towards BRCA2-mutated cells”.

Take `COc1ccccc1NS(=O)(=O)c1cc(C(=O)O)ccc1C` [Example 8]: in the assay on EUFA423F HA cells [1], the “toxicity towards EUFA423 HA (BRCA2-complemented cells)” value is recorded as “no”. In addition, the “effect on viability/growth of BRCA2-complemented HA cells” value in the assay on EUFA423F HA cells [2] is “unaffected”. The “toxicity towards EUFA423 cells” value in the assay on EUFA423F cells is “yes”. Besides, in the assay with EUFA423F cells (CellTiter-Glo, 72 hours, listed as Z56), the “toxicity / selective toxicity towards BRCA2-mutated cells in cell viability assays” value is “toxicity only towards BRCA2 mutant cells; also recorded: selectively toxic to BRCA2-mutated cells”. Besides, the 50% inhibitory concentration (IC50) (as a rule, the concentration that inhibits the measured activity by half) with EUFA423F cells (Homo sapiens, CellTiter-Glo, 72 hours, read-out: IC50 value for the EUFA423F viability experiments) turned out to be 32 ± 12.1 µM.

(Values after patent US20260193227A1, “THERAPEUTIC COMPOUNDS AND METHODS” (UNIVERSITY OF IOWA RESEARCH FOUNDATION, priority 2022, published 2026).)
